This is an account of results in patent publication US20240294551A1 (AMGEN INC., priority 2022, published 2024).

Like-named read-outs stand apart in the source and are kept apart here.

The target in experiment [1] is His-tagged KRAS G12D protein (Homo sapiens (Human), UniProt P01116, G12D). Kind of experiment: KRAS G12D TR-FRET Assay. In kind it is binding. In short, it runs like this: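 His-tagged KRAS G12D (diluted to 20 nM in pH 7.4 HEPES buffer with 10 mM MgCl2 and 10 μM GDP) was preincubated with titrated compound for 30 min at room temperature. Biotinylated KRPep-2d peptide (diluted to 20 nM) was then added for 1 h, and displacement was monitored by TR-FRET.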
Sequence of His-tagged KRAS G12D protein (P01116 other isoform, or with tags, fused parts or gaps G12D): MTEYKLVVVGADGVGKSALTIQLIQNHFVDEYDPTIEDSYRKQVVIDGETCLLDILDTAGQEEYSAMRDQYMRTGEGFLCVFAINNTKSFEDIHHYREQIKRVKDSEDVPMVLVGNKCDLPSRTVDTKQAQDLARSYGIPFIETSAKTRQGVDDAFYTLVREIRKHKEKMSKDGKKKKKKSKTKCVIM
(In general: Time-resolved FRET reads energy transfer from a long-lived donor to a nearby acceptor.)

For experiment [2], the target named is GDP-bound KRAS protein (aa 1-169), containing both G12D and C118A amino acid substitutions (Homo sapiens (Human), UniProt P01116, C118A/G12D). Kind of experiment: KRAS G12D Coupled Nucleotide Exchange Assay. In kind it is biochemical.
Sequence of GDP-bound KRAS protein (aa 1-169), containing both G12D and C118A amino acid substitutions (P01116 other isoform, or with tags, fused parts or gaps G12D/C118A): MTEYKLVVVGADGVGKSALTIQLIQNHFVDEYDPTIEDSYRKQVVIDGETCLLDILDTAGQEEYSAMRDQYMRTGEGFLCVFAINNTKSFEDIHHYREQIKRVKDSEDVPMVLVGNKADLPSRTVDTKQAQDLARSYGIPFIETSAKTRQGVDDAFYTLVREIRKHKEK
In experiment [3] the test system is Phosphorylation of ERK1/2 in AsPC-1 cells. The experiment is described as follows: Phospho-ERK1/2 MSD Assay. Conditions: Homo sapiens, ASPC1, 2 h. It counts as cell-based, human. As to the method:
AsPC-1 (ATCC® CRL-1682™) cells were cultured in RPMI 1640 Medium (ThermoFisher Scientific 11875093) containing 10% fetal bovine serum (ThermoFisher Scientific 16000044) and 1× penicillin-streptomycin-glutamine (ThermoFisher Scientific 10378016). Sixteen hours prior to compound treatment, AsPC-1 cells were seeded in 96-well cell culture plates at a density of 25,000 cells/well and incubated at 37° C., 5% CO2. A compound dose-response titration was diluted in growth media, added to appropriate wells of a cell culture plate, and then incubated at 37° C., 5% CO2 for 2 hours. Following compound treatment, cells were washed with ice-cold Dulbecco's phosphate-buffered saline, no Ca^2+ or Mg^2+ (ThermoFisher Scientific 14190144), and then lysed in RIPA buffer (50 mM Tris-HCl pH 7.5, 1% Igepal, 0.5% sodium deoxycholate, 150 mM NaCl, and 0.5% sodium dodecyl sulfate) containing protease inhibitors (Roche 4693132001) and phosphatase inhibitors (Roche 4906837001). Phosphorylation of ERK1/2 in compound-treated lysates was assayed using Phospho-ERK1/2 Whole Cell Lysate kits (Meso Scale Discovery K151DWD) according to the manufacturer's protocol. Assay plates were read on a Meso Scale Discovery Sector Imager 6000, and data were analyzed using a 4-parameter logistic model to calculate IC50 values.

Where [4] appears, read: read-out: KRAS G12D Binding IC50.
Setting [5] is: read-out: KRAS G12D Coupled Exchange IC50.
The mark [6] stands for this setting: read-out: 2 h p-ERK (AsPC-1 cells), IC50.
The mark [7] stands for this setting: TR-FRET, read-out: KRAS G12D Binding.
Where [8] appears, read: 2 hours compound pre-incubation, read-out: KRAS G12D Coupled Exchange.
The mark [9] stands for this setting: read-out: 2 h p-ERK (AsPC-1 cells).

Turning to `Cc1c2ncc3c(nc(OCC4CN(C)CCO4)nc13)N1CCC[C@](C)(C1)NC(=O)CCCc1c(F)ccc3cc(O)cc-2c13` (mixture of isomers) [Example 24], the IC50 worked out at 0.02 µM in experiment [1] (setting [4]), 0.018 µM in experiment [2] (setting [5]) and 1.14 µM in experiment [3] (setting [6]).
In the case of `Cc1cc2[nH]ncc2c2c1CCC[C@H](F)C(=O)N[C@@H]1CCCN(C1)c1nc(OC[C@@]34CCCN3C[C@H](F)C4)nc3c(F)c-2ncc13` (mixture of isomers) [Example 49, (17R)-14,30-difluoro-24-(((2R,7aS)-2-fluorotetrahydro-1H-pyrrolo[1,2-a]pyrrol-7a(5H)-yl)methoxy)-9-methyl-5,6,16,21,23,25,29-heptaazahexacyclo[24.3.1.1~17,21~.0~2,10~.0~3,7~.0~22,27~]hentriaconta-1(30),2,4,7,9,22,24,26,28-nonaen-15-one], the IC50 came to 0.007 µM in experiment [1] (setting [4]), 0.005 µM in experiment [2] (setting [5]) and 0.116 µM in experiment [3] (setting [6]).
The like results for `Cc1cc2[nH]ncc2c2c1CCCC(F)C(=O)N[C@@H]1COCCN(C1)c1nc(OC[C@@]34CCCN3C[C@H](F)C4)nc3c(F)c-2ncc13` (mixture of isomers) [Example 55] were, in that order, 0.019 µM, 0.014 µM and 1.38 µM.
As for `Cc1cc2[nH]ncc2c2c1CCCCC(=O)N[C@]1(C)COCCN(C1)c1nc(OC[C@@]34CCCN3C[C@H](F)C4)nc3c(F)c-2ncc13` (mixture of isomers) [Example 67], the values for the IC50 in experiment [1] (setting [4]), in experiment [2] (setting [5]) and in experiment [3] (setting [6]) were 0.046 µM, 0.034 µM and 1.66 µM, respectively.
For the compound `Cc1cc2[nH]ncc2c2c1CCCOC(=O)N1CC[C@@H]3CCN(C[C@@H]31)c1nc(OC[C@@]34CCCN3C[C@H](F)C4)nc3c(F)c-2ncc13` (mixture of isomers) [Example 75, (28S,32R)-33-fluoro-4-(((2R,7aS)-2-fluorotetrahydro-1H-pyrrolo[1,2-a]pyrrol-7a(5H)-yl)methoxy)-18-methyl-23-oxa-1,3,5,9,14,15,25-heptaazaheptacyclo[23.5.2.1~6,10~.0~2,7~.0~11,19~.0~12,16~.0~28,32~]tritriaconta-2,4,6,8,10(33),11,13,16,18-nonaen-24-one], the IC50 in experiment [3] (setting [6]) was 0.213 µM.
For `Cc1cc2[nH]ncc2c2c1CCCC(=O)OCC1(O)CCCN(C1)c1nc(OC[C@@]34CCCN3C[C@H](F)C4)nc3c(F)c-2ncc13` (mixture of isomers) [Example 103], the IC50 in experiment [1] (setting [4]) is 0.031 µM; in experiment [2] (setting [5]), 0.032 µM; in experiment [3] (setting [6]) it was 1.99 µM.
`CC12CN(CCO1)c1nc(OC[C@@]34CCCN3C[C@H](F)C4)nc3c(F)c(ncc13)-c1c(c(Cl)cc3[nH]ncc13)CCCc1nc2co1` (mixture of isomers) [Example 380]: the results for the IC50 in experiment [1] (setting [7]), in experiment [2] (setting [8]) and in experiment [3] (setting [9]) were 0.155 µM, 0.029 µM and 1.69 µM, respectively.
As to `Fc1c2ncc3c(nc(OC[C@@]45CCCN4C[C@H](F)C5)nc13)N1CCC[C@H](C1)Cn1ncc(n1)[C@@H]1C[C@@H]1c1c(Cl)cc3[nH]ncc3c1-2` (mixture of isomers) [Example 383], the IC50 in experiment [1] (setting [7]) was 0.013 µM; in experiment [2] (setting [8]) it was 0.008 µM; in experiment [3] (setting [9]) it was 0.0754 µM.
On to `Cc1cc2[nH]ncc2c2c1CCCOC(=O)O[C@@H]1C[C@H](F)CN(C1)c1nc(OC[C@@]34CCCN3C[C@H](F)C4)nc3c(F)c-2ncc13` (racemic) [Example 95], for which the figures for the IC50 in experiment [1] (setting [4]), in experiment [2] (setting [5]) and in experiment [3] (setting [6]) were 0.038 µM, 0.036 µM and 2.46 µM, respectively.
Turning to `Cc1cc2[nH]ncc2c2c1CCCOC(=O)OC1CC[C@@H]3CC[C@H]1N3c1nc(OC[C@@]34CCCN3C[C@H](F)C4)nc3c(F)c-2ncc13` (racemic) [Example 96], the IC50 in experiment [1] (setting [4]) is 0.067 µM; in experiment [2] (setting [5]), 0.054 µM; in experiment [3] (setting [6]), 1.38 µM.
In the case of `Cc1cc2[nH]ncc2c2c1[C@H]1C[C@@H]1COC(=O)O[C@@H]1CCCN(C1)c1nc(OC[C@@]34CCCN3C[C@H](F)C4)nc3c(F)c-2ncc13` (racemic) [Example 114], the IC50 in experiment [1] (setting [4]) turned out to be 0.019 µM; in experiment [2] (setting [5]), 0.012 µM; in experiment [3] (setting [6]) it was 0.346 µM.
The like results for `O=C1OCCCc2c(Cl)cc3[nH]ncc3c2-c2ncc3c(nc(OC[C@@]45CCCN4C[C@H](F)C5)nc3c2F)N2C[C@H]3C[C@H]3[C@H](C2)O1` (racemic) [Example 179] were, in that order, 0.009 µM, 0.005 µM and 0.0788 µM.
For `O=C1N[C@H]2CC[C@@H](O)CN(C2)c2nc(OC[C@@]34CCCN3C[C@H](F)C4)nc3c(F)c(ncc23)-c2c(c(Cl)cc3[nH]ncc23)CCCO1` (racemic) [Example 283, (26S,29R)-18-chloro-32-fluoro-4-(((2R,7aS)-2-fluorotetrahydro-1H-pyrrolo[1,2-a]pyrrol-7a(5H)-yl)methoxy)-29-hydroxy-23-oxa-1,3,5,9,14,15,25-heptaazahexacyclo[24.4.1.1~6,10~.0~2,7~.0~11,19~.0~12,16~]dotriaconta-2,4,6(32),7,9,11,13,16,18-nonaen-24-one], in that order: 3.27 µM, 1 µM and 10 µM.
The like results for `O=C1OC/C=C/c2c(Cl)cc3[nH]ncc3c2-c2ncc3c(nc(OC[C@@]45CCCN4C[C@H](F)C5)nc3c2F)N2CCC[C@H](C2)O1` (single isomer, unassigned) [Example 116] were, in that order, 0.017 µM, 0.012 µM and 0.27 µM.
With `Cc1cc2[nH]ncc2c2c1CCCC(F)C(=O)N[C@@H]1CCCCN(C1)c1nc(OC[C@@]34CCCN3C[C@H](F)C4)nc3c(F)c-2ncc13` (single isomer, unassigned) [Example 159], the IC50 in experiment [1] (setting [4]) was determined as 0.006 µM; in experiment [2] (setting [5]), 0.005 µM; in experiment [3] (setting [6]) it was 0.0796 µM.
With `Cc1cc2[nH]ncc2c2c1C[C@@H](C)COC(=O)O[C@@H]1CCCN(C1)c1nc(OC[C@@]34CCCN3C[C@H](F)C4)nc3c(F)c-2ncc13` (single isomer, unassigned) [Example 214], the IC50 in experiment [1] (setting [4]) was determined as 0.022 µM; in experiment [2] (setting [5]), 0.018 µM; in experiment [3] (setting [6]) it was 0.496 µM.
For `Cc1cc2[nH]ncc2c2c1C[C@H](C)COC(=O)O[C@@H]1CCCN(C1)c1nc(OC[C@@]34CCCN3C[C@H](F)C4)nc3c(F)c-2ncc13` (single isomer, unassigned) [Example 215], in that order: 0.015 µM, 0.012 µM and 0.108 µM.
On to `O=C1OCCc2c(Cl)cc3[nH]ncc3c2-c2ncc3c(nc(OC[C@@]45CCCN4C[C@H](F)C5)nc3c2F)N2CCC[C@@]3(C[C@H](CO3)O1)C2` [Example 314, (1R,4R)-11-chloro-33-fluoro-25-(((2R,7aS)-2-fluorotetrahydro-1H-pyrrolo[1,2-a]pyrrol-7a(5H)-yl)methoxy)-2,5,7-trioxa-14,15,20,24,26,28-hexaazaheptacyclo[26.3.1.1~1,4~.1~19,23~.0~10,18~.0~13,17~.0~22,27~]tetratriaconta-10,12,15,17,19(33),20,22,24,26-nonaen-6-one], for which, in experiment [3] (setting [6]), the IC50 turned out to be 0.59 µM.
